Earlier results, collected in PMC2694617 (Journal of medicinal chemistry, 2009).
Where two headings read alike, the source gives them in different places.

Tests used:
human NTS1 [1] = target: T1, human NTS1 (Homo sapiens, UniProt P30989)
human NTS1 [2] = target: T1, human NTS1; remark: listed apart in the source
[3] = tested on: rat model of inflammatory pain; conditions: in vivo
[4] = ref [6],[11],[18],[19]

T1 sequence (P30989 whole entry): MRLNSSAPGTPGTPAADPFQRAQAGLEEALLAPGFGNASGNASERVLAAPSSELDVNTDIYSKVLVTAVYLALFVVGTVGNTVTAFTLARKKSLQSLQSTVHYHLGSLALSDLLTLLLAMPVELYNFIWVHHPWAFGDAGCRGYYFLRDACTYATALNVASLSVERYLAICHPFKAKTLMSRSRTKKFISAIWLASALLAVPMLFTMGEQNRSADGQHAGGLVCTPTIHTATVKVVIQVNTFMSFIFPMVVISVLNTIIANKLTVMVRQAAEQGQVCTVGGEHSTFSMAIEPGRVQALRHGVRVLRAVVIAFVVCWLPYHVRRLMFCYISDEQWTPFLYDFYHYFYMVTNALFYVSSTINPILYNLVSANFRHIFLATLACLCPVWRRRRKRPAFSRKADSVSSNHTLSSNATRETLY

For “cyclo(KKPYILKKPYIL) [JMV2012] [listing 1 of 2 here]”, the Kd (human NTS1 [1]; ref [12]) is given as 150 nM.

In the case of “cyclo(KKPYILKKPYIL) [JMV2012] [listing 2 of 2 here]”, the analgesic activity (previously described, ref [12]) is listed as “analgesic”.

For neurotensin (from UniProt P30990), the Ki (human NTS1 [2]) is given as 0.5 nM.

In the case of contulakin-G, the potency [3] is given as “picomolar potency”.

In the case of “(N-methyl-Arg)-Lys-Pro-(L-neo-Trp)-(tert-Leu)-Leu (RKPWLL) [NT69L]”, the Kd (human NTS1 [1]; ref [11]) is given as 1.55 nM.

For “NT: endogenous neuropeptide; full-length, unmodified NT”, the analgesic activity (mediated spinally and/or supraspinally by NT receptors, ref [5],[6]) is listed as “potent analgesic activity”.

In the case of “(N-methyl-Arg)-Lys-Pro-(L-neo-Trp)-(tert-Leu)-Leu [NT69L]”, the BBB penetration [4] is listed as “penetrates the BBB” and the analgesic activity (ref [6],[11],[18],[19]) is listed as “potent analgesic”.
